US4228304A, “Novel cyclohexanecarboxylic acid and its derivatives” (Hisamitsu Pharmaceutical Co. Inc., priority 1977, dated 1980)
Where a name gives a salt, the structure may show the parent alone. Each block holds one molecule with its values, some of them ahead of it.

Experiments:
Emulsification test = format: physicochemical; settings: 10 ml of 0.25% solution of the salt + 10 ml toluene, 40° C., 15 minutes standing
Experimental: (§1) (6) Emulsification test and determination of surface tention
They were emulsified in the test tube by turning it upside down repeatedly for 30 times at 40° C. and were allowed to stand for 15 minutes. After the standing the separated volume of aqueous layer was measured.

[1] = Determination of surface tension; format: physicochemical; settings: 0.25% solution of the salt, Ring method, 25° C.
Experimental: as §1
As the structure of the compounds of the present invention is comparatively, similar to Amisoft, HS-11, a sort of Amisoft, which is mixture of 70% of N-stearoyl-L-glutamic acid monosodium salt and 30% of N-palmitoyl-L-glutamic acid monosodium salt was selected for the tests. The surface activity and the surface tension of the said HS-11 and the compounds of the present invention were measured and determined respectively, and those comparative results were shown in Table VII.
(2) Determination of surface tension
The 0.25% solution of the salt of each compound was determined by Ring method at 25° C.

Acute toxicity (rat) = settings: in vivo, po
Experimental: Each test compound suspended in 0.5% tragacanth gum-saline was administered orally, subcutaneously or intraperitoneally to animals ddY strain mouse and Wistar strain rats. The 50% lethal dose and the 95% confidence limit were calculated by Litchfield-Wilcoxon's method from the death of animals in 3 weeks following administration.

[2] = tested on: lung fragment of guinea pig; test: Mediator (histamine) release on lung fragment of guinea pig; format: cell-based, guinea pig (Hartley strain); settings: 10^-4 g/ml
Experimental: (4) Mediator release on lung fragment of guinea pig.
A group of Hartley strain male guinea pigs (body weight 250-300 g) were administered intraperitoneally anti-BPO-BGG IgE serum. The animals were sacrificed by decapitation, and those sensitized lungs were isolated for use. […] Following 10 minute incubation, the amount of the released histamine were determined by bioassay.

[3] = tested on: Picryl Chloride induced contact dermatitis; test: Picryl Chloride induced contact dermatitis; format: in vivo, mouse (ddY strain); settings: Mus musculus, po; for inhibition in vivo at 100 mg/kg: orally, ear swelling 24 hours after second challenge
Experimental: (3) Picryl Chloride induced contact dermatitis
At first 0.1 ml of 7% picryl chloride-ethanol solution was applied to skin of the depilated abdomens (area 2.5×15 mm) of ddY-strain male mice (body weight 20-22 g). After one week each 0.02 ml of 1% picryl chloride-olive oil solution was applied topically to the ears of the mouse. […] After three days 0.1 ml of 7% picryl chloride-ethanol solution was applied again to the depilated abdomens of the mice. After one week, each 0.02 ml of 1% picryl chloride-olive oil solution per ear were applied topically to the bilateral ears, and at same time, the test compounds were administered orally. Immediately before and 24 hours after the second challenge, the thickness of the ears was measured and the swelling was calculated. The percent inhibitions were calculated by the ratio of the each swelling to the control.

[4] = tested on: passive cutaneous anaphylaxis in rat; test: Homologeous passive cutaneous anaphylaxis in rat; format: in vivo, rat (Wistar strain); settings: orally, exuded pigment vs control
Experimental: (2) Homologeous passive cutaneous anaphylaxis in rat Each test compound suspended in 0.5% tragacanth gum-distilled water was administered orally to a group of five male Wistar strain rats (body weight 150-200 g). After one hour 0.1 ml of 5% anti-Dinitrophinol conpled Ascaris rat IgE serum-physiological sodium chloride solution was injected intradermally to dorsum of the rat. […] The animals were sacrificed by decapitation 30 minutes after the injection. Thereafter the skin of the animals were removed and the amount of the pigment exuded into the inflamed skin was determined. The percent inhibitions were calculated by the ratio of the amounts of exuded pigments to the control.

[5] = tested on: rat adjuvant polyarthritis; test: Effect on rat adjuvant polyarthritis; format: in vivo, rat (Sprague Dawley strain); settings: oral daily: Compound No. 1 200 mg/kg, Ibuprofen 50 mg/kg, Prednisolone 0.5 mg/kg
Experimental: (5) Effect on rat adjuvant polyarthritis
A group of eight to ten male Sprague Dawley strain rats (body weight 240-280 g) were used. 0.1 ml of Complete Freuind's adjuvant (CFA, Mycobacterium butyricum, 100 mg/10 cc) was injected intradermally to the right hind sole.

Structure (SMILES): CC(C)CCC[C@H]1CC[C@@](C)(C(=O)NCC(=O)O)CC1 [Compound No. 2 (potassium salt)]
- Separated volume of aqueous layer (Emulsification test): 9.5 mL
- Surface tension γ [1]: 39.5 dyn/cm

Structure (SMILES): CC(C)CCC[C@H]1CC[C@@](C)(C(=O)NCC(=O)O)CC1 [Compound No. 2, N-(cis-4-isohexyl-1-methylcyclohexanecarbonyl)-glycine]
- LD50 at 504 h (Acute toxicity (rat); female rat): ~10300 mg/kg
- LD50 at 504 h (Acute toxicity (rat); male rat): ~11000 mg/kg
- inhibition (released histamine) [2]: 73.0%
- inhibition in vivo at 100 mg/kg [3]: 41%
- Inhibition ([4]; 100 mg/kg): 46%

- Separated volume of aqueous layer (Emulsification test): 7.3 mL
- Surface tension γ [1]: 44.5 dyn/cm
Structure (SMILES): CCC(NC(=O)[C@]1(C)CC[C@H](CCCC(C)C)CC1)C(=O)O (stereo partly drawn) [Compound No. 12 (potassium salt)]

Structure (SMILES): CCC(NC(=O)[C@]1(C)CC[C@H](CCCC(C)C)CC1)C(=O)O (stereo partly drawn) [Compound No. 12]
- inhibition in vivo at 100 mg/kg [3]: 27%

- Separated volume of aqueous layer (Emulsification test): 9.3 mL
- Surface tension γ [1]: 42.3 dyn/cm
Structure (SMILES): CC(C)CCC[C@H]1CC[C@@](C)(C(=O)N[C@@H](CCC(=O)O)C(=O)O)CC1 [Compound No. 15 (monosodium salt)]

- Separated volume of aqueous layer (Emulsification test): 9.5 mL
- Surface tension γ [1]: 42.3 dyn/cm
Structure (SMILES): CSCC[C@H](NC(=O)[C@]1(C)CC[C@H](CCCC(C)C)CC1)C(=O)O [Compound No. 17 (triethanolamine salt)]

Structure (SMILES): CSCC[C@H](NC(=O)[C@]1(C)CC[C@H](CCCC(C)C)CC1)C(=O)O [Compound No. 17]
- inhibition in vivo at 100 mg/kg [3]: 50%

- Separated volume of aqueous layer (Emulsification test): 9.5 mL
- Surface tension γ [1]: 38.8 dyn/cm
Structure (SMILES): CC(C)CCC[C@H]1CC[C@H](C(=O)NCCCCCC(=O)O)CC1 [Compound No. 42 (sodium salt)]

Structure (SMILES): CC1(C)[C@@H](O[C@H]2O[C@H](C(=O)O)[C@@H](O)[C@H](O)[C@H]2O[C@@H]2O[C@H](C(=O)O)[C@@H](O)[C@H](O)[C@H]2O)CC[C@]2(C)[C@H]3C(=O)C=C4[C@@H]5C[C@@](C)(C(=O)O)CC[C@]5(C)CC[C@@]4(C)[C@]3(C)CC[C@@H]12 [Glycyrrhizin, reference compound]
- inhibition (released histamine) [2]: 8.0%
- Inhibition ([4]; 100 mg/kg): 22%

Structure (SMILES): CC(C)Cc1ccc(C(C)C(=O)O)cc1 (stereo not drawn) [Ibuprofen]
- Swelling percent of left hind paw (non-treatment of CFA) ([5]; day 0): -1.7±1.3%
- Swelling percent of right hind paw (treatment of CFA) ([5]; day 0): 118.6± 5.7%
- Swelling percent of left hind paw (non-treatment of CFA) ([5]; day 1): -2.4±1.0%
- Swelling percent of right hind paw (treatment of CFA) ([5]; day 1): 98.1± 6.1%
- Swelling percent of left hind paw (non-treatment of CFA) ([5]; day 4): -2.3±1.5%
- Swelling percent of right hind paw (treatment of CFA) ([5]; day 4): 204.7±11.6%
- Swelling percent of left hind paw (non-treatment of CFA) ([5]; day 7): 1.5±1.8%
- Swelling percent of right hind paw (treatment of CFA) ([5]; day 7): 181.7±14.8%
- Swelling percent of left hind paw (non-treatment of CFA) ([5]; day 10): 7.4±1.8%
- Swelling percent of left hind paw (non-treatment of CFA) ([5]; day 14): 12.5±1.5%
- Swelling percent of left hind paw (non-treatment of CFA) ([5]; day 17): 8.5±1.5%
- Swelling percent of left hind paw (non-treatment of CFA) ([5]; day 21): 8.5±2.0%
- Swelling percent of right hind paw (treatment of CFA) ([5]; day 21): 138.5±12.6%

Structure (SMILES): C[C@]12C=CC(=O)C=C1CC[C@@H]1[C@@H]2[C@@H](O)C[C@@]2(C)[C@H]1CC[C@]2(O)C(=O)CO [Prednisolone]
- inhibition (released histamine) [2]: 4.0%
- inhibition in vivo at 5 mg/kg ([3]; 24 h, read-out: Inhibition): 32%
- Inhibition ([4]; 5 mg/kg): 42%
- Swelling percent of left hind paw (non-treatment of CFA) ([5]; day 0): -1.1±1.0%
- Swelling percent of right hind paw (treatment of CFA) ([5]; day 0): 118.4± 6.0%
- Swelling percent of left hind paw (non-treatment of CFA) ([5]; day 1): -1.0±1.0%
- Swelling percent of right hind paw (treatment of CFA) ([5]; day 1): 97.3± 6.5%
- Swelling percent of left hind paw (non-treatment of CFA) ([5]; day 4): -1.7±1.1%
- Swelling percent of right hind paw (treatment of CFA) ([5]; day 4): 232.7±17.8%
- Swelling percent of left hind paw (non-treatment of CFA) ([5]; day 7): 5.7±1.9%
- Swelling percent of right hind paw (treatment of CFA) ([5]; day 7): 200.3±22.5%
- Swelling percent of left hind paw (non-treatment of CFA) ([5]; day 10): 4.5±2.9%
- Swelling percent of right hind paw (treatment of CFA) ([5]; day 10): 167.2±19.0%
- Swelling percent of left hind paw (non-treatment of CFA) ([5]; day 14): 12.5±2.4%
- Swelling percent of right hind paw (treatment of CFA) ([5]; day 14): 175.0±18.6%
- Swelling percent of left hind paw (non-treatment of CFA) ([5]; day 17): 9.8±1.4%
- Swelling percent of right hind paw (treatment of CFA) ([5]; day 17): 174.2±18.6%
- Swelling percent of left hind paw (non-treatment of CFA) ([5]; day 21): 7.1±1.5%
- Swelling percent of right hind paw (treatment of CFA) ([5]; day 21): 173.0±23.7%

Structure (SMILES): CC(C)CCC[C@H]1CC[C@@](C)(C(=O)NCCCCCC(=O)O)CC1 [compound 3, N-(cis-4-isohexyl-1-methylcyclohexanecarbonyl)-ε-aminocaproic acid]
- inhibition in vivo at 100 mg/kg [3]: 45%

Structure (SMILES): CC(C)CCC[C@H]1CC[C@@](C)(C(=O)N[C@@H](C)C(=O)O)CC1 [compound 5]
- inhibition in vivo at 100 mg/kg [3]: 32%

Structure (SMILES): CC(C)CCC[C@H]1CC[C@@](C)(C(=O)NCCC(=O)O)CC1 [compound 6, N-(cis-4-isohexyl-1-methylcyclohexanecarbonyl)-β-alanine]
- inhibition in vivo at 100 mg/kg [3]: 10%

Structure (SMILES): CC[C@H](C)[C@H](NC(=O)[C@]1(C)CC[C@H](CCCC(C)C)CC1)C(=O)O [compound 8]
- inhibition in vivo at 100 mg/kg [3]: 41%

Structure (SMILES): CCCC(NC(=O)[C@]1(C)CC[C@H](CCCC(C)C)CC1)C(=O)O (stereo partly drawn) [compound 9]
- inhibition in vivo at 100 mg/kg [3]: 47%

Structure (SMILES): CC(C)CCC[C@H]1CC[C@@](C)(C(=O)N[C@H](C(=O)O)C(C)C)CC1 [compound 10]
- inhibition in vivo at 100 mg/kg [3]: 9%

Structure (SMILES): CCCCC(NC(=O)[C@]1(C)CC[C@H](CCCC(C)C)CC1)C(=O)O (stereo partly drawn) [compound 11]
- inhibition in vivo at 100 mg/kg [3]: 37%

Structure (SMILES): CC(C)CCC[C@H]1CC[C@@](C)(C(=O)NCCCC(=O)O)CC1 [compound 13]
- inhibition in vivo at 100 mg/kg [3]: 40%

Structure (SMILES): CC(C)CCC[C@H]1CC[C@@](C)(C(=O)N[C@@H](CCC(N)=O)C(=O)O)CC1 [compound 14]
- inhibition in vivo at 100 mg/kg [3]: 7%

Structure (SMILES): CC(C)CCC[C@H]1CC[C@@](C)(C(=O)N[C@@H](CS)C(=O)O)CC1 [compound 18]
- inhibition in vivo at 100 mg/kg [3]: 27%

Structure (SMILES): CC(C)CCC[C@H]1CC[C@](C)(C(=O)O)CC1 [compound 20, trans-4-isohexyl-1-methylcyclohexanecarboxylic acid]
- inhibition in vivo at 100 mg/kg [3]: 44%

Structure (SMILES): CC(C)CCC[C@H]1CC[C@](C)(C(=O)NCC(=O)O)CC1 [compound 21, N-(trans-4-isohexyl-1-methylcyclohexanecarbonyl)-glycine]
- inhibition in vivo at 100 mg/kg [3]: 53%
